Several values for one entry are separate records, joined by “and”; a condition that tells them apart may be missing. Equal values may be shown once. Residues, ends and D or L forms follow the SMILES beside them.
Assays:
[1] = 14-day repeat-dose GLP toxicology study; details: cynomolgus monkey, in vivo
Procedure: (§1) A 14-day repeat-dose GLP toxicology study of F365 was conducted in Cynomolgus monkeys. The study complied with the OECD Principles of Good Laboratory Practice. […] Cynomolgus monkeys were approximately 2–4 years of age and weighed between 2.0 and 2.9 kg at the start of treatment. Four male and four female cynomolgus monkeys were used for each dose group. F365 (in 0.9% sodium chloride for injection) was administered four times daily (i.e. 6 h ± 15 min apart) as 60-min intravenous infusion at 5, 20, and 50 mg/kg/day for 14 consecutive days; the reference item (vehicle control) was also administered. Assessments of mortality checks, clinical observations, body weight, ophthalmology, and electrocardiography were conducted. Blood and urine samples were collected pre-treatment and at the end of the dosing period for hematology, clinical chemistry, coagulation, and urinalysis assessments. Other blood samples were collected after the first and last dose for toxicokinetic assessment. Following the end of the 14-day dosing period, animals were euthanized on Day 16 and examined macroscopically. Organ weights and macroscopic observations were recorded at necropsy for all groups. Histopathological examinations were performed on the specified tissues and organ list for animals across all groups.

[2] = test system: cynomolgus monkeys; assay: 14-day repeat-dose GLP toxicology study; details: cynomolgus monkey, in vivo
Procedure: as §1

[3] = test system: P. aeruginosa FADDI-PA102; assay: Neutropenic mouse pneumonia model, polymyxin-resistant isolate; assay type: in vivo; details: for Tukey HSD diff, Pre-treatment minus treated group (Log10 CFU/lung) / Tukey HSD diff, Vehicle minus treated group (Log10 CFU/lung): Fig. d; for Log10 CFU/lung: Figure 3d, individual mice
Procedure: The experimental methodology for the neutropenic mouse lung infection model was previously described in detail. Briefly, Swiss mice (female, 7-week-old, 22–28 g) were rendered neutropenic by intraperitoneal administration of cyclophosphamide, 4 days (150 mg/kg) and 1 day (100 mg/kg) prior to inoculation. Lung infection was established by the administration of 25 µL of early log-phase bacterial suspension (polymyxin-susceptible or resistant isolate, 4 × 10^7 CFU/mL), directly into the lungs via the trachea using a MicroSprayer™ device. Lipopeptide solutions were prepared in sterile saline. At 2 h after inoculation, mice (n = 3 or 4) were administered lipopeptide (45–240 mg/kg/d free base) or control (sterile saline) via an intraperitoneal or subcutaneous bolus injection in three divided doses every 8 h. At 0 or 24 h after the administration of lipopeptide solution or saline (control), animals were euthanized and lungs were collected and homogenized under sterile conditions. Homogenate was filtered and the filtrate was collected, serially diluted in sterile saline, and spread on nutrient agar plates. Agar plates were incubated at 37 °C overnight for bacterial colony counting and the bacterial load of the lung (log10 CFU/lung) in each mouse was calculated. In vivo efficacy was calculated as the difference of the log10 CFU/lung values between the treated mice at 24 h and the pre-treatment (control) at 0 h (Δlog10 CFU/lung = log10 [treated] CFU/lung − log10 [pre-treatment] CFU/lung).

[4] = Distribution, accumulation and metabolism in mouse kidneys (ME-SALDI-MS imaging, histology); assay type: in vivo; details: mouse, in vivo
Procedure: At 2 h after the last dose on Day 2, mice were rapidly euthanized. The left kidney was collected, flash-frozen in liquid nitrogen, and stored at -80 C for MS imaging analysis. The right kidney was fixed in 10% formalin for histological examination (Histopathology and Organ Pathology Unit at the University of Melbourne). The level of histological damage to the kidneys was graded as previously described. […] A total of 1 μL was spotted onto electrochemically etched, porous-silicon semiconductor substrates for desorption/ionization on silicon (DIOS)[39]. […] For lipopeptide distribution in mouse kidneys, serially sectioned 8-μm frozen slices of the kidney were loaded onto DIOS substrates and coated with a thin layer of α-CHCA using a matrix sprayer (TM-Sprayer, HTX) for MSI analysis. […] Mounted tissue was scanned for imaging alignment (Epson Perfection […]) and calibrated as previously described. Resulting polymyxin maps were visualized and normalized against the total ion current (TIC) of each section using IonView software (Shimadzu). Lipopeptide accumulation in mouse kidneys was determined by simultaneous […] analysis of kidney tissue from treated animals and serial dilutions of the drug deposited on control kidney tissue. […] The signal intensities were compared to the corresponding concentration standard curve to calculate the concentration of lipopeptide present. Putative metabolites in the kidneys treated with lipopeptides were identified by […]. Control kidney sections were used to differentiate lipopeptide metabolites from endogenous metabolites and MS/MS data from lipopeptide standards were used to differentiate lipopeptide metabolites from the parent ion generated via CID processed in the acquisition software (MALDI Solutions, Shimadzu). Levels of accumulated lipopeptide metabolites were determined by normalization to the parent ion in MSI data.

[5] = test system: female cynomolgus monkeys; parameters: method as in earlier work; details: 3.8 mg/kg/12 h (7.6 mg/kg/day) for 7 days ref 27; cited from earlier work

In the case of `CC[C@@H]1NC(=O)[C@@H](CC(C)C)NC(=O)[C@H](CCN)NC(=O)[C@@H](NC(=O)[C@H](CN)NC(=O)[C@@H](NC(=O)[C@H](CCN)NC(=O)c2ccc(Cl)cc2Cl)[C@@H](C)O)CCNC(=O)[C@H]([C@@H](C)O)NC(=O)[C@H](CCN)NC(=O)[C@H](CCN)NC1=O` [Lipopeptide F365] (HELM PEPTIDE1{[O=C(c1ccc(Cl)cc1Cl)[*:2]].[Dab].T.[NC[C@H](N[*:1])C(=O)[*:2]].[Dab].[Dab].[dL].[Abu].[Dab].[Dab].T}$PEPTIDE1,PEPTIDE1,5:R3-11:R2$$$V2.0), the NOAEL [1] was ≥ 20 mg/kg/day, the AUC(0-t) ([1]; 5 mg/kg, Plasma AUC0-24 Day 1) was 24 µg·h/mL and the AUC(0-t) ([1]; 5 mg/kg, Plasma AUC0-24 Day 14) was 26.4 µg·h/mL. The AUC(0-t) ([1]; 20 mg/kg, Plasma AUC0-24 Day 1) was 97.2 µg·h/mL, the AUC(0-t) ([1]; 20 mg/kg, Plasma AUC0-24 Day 14) was 110 µg·h/mL and the AUC(0-t) ([1]; 50 mg/kg, Plasma AUC0-24 Day 1) was 246 µg·h/mL. For the same molecule, the AUC(0-t) ([1]; 50 mg/kg, Plasma AUC0-24 Day 14) was 378 µg·h/mL, the “estimated dose that can be safely administered to patients” value [2] was “at least 6.5 mg/kg/day” and the Kidney histopathology ([2]; 5 mg/kg) was 8/8 no changes. For the same molecule, the “Tukey HSD diff, Pre-treatment minus treated group (Log10 CFU/lung)” value ([3]; 120mg/kg/d) was 0.69, the “Tukey HSD diff, Vehicle minus treated group (Log10 CFU/lung)” value ([3]; 120mg/kg/d) was 1.074 and the “Tukey HSD diff, Pre-treatment minus treated group (Log10 CFU/lung)” value ([3]; 240mg/kg/d) was 3.307. The “Tukey HSD diff, Vehicle minus treated group (Log10 CFU/lung)” value ([3]; 240mg/kg/d) was 3.691, the “Log10 CFU/lung” value ([3]; 120mg/kg/d) was 6.56 Log10 CFU/lung and 6.03 Log10 CFU/lung and 7.00 Log10 CFU/lung and the “Log10 CFU/lung” value ([3]; 240mg/kg/d) was 4.07 Log10 CFU/lung and 3.82 Log10 CFU/lung and 3.85 Log10 CFU/lung. For the same molecule, the level at time molar ([4]; female, Swiss, 10 umol/kg, 10 μmol/kg SC, 6 doses Day 1 and 3 doses Day 2, 2 h after last dose, read-out: Concentration in the kidney cortex region) was 20.8 µM, the “M1 metabolite in kidneys” value [4] was “no M1 metabolite detected” and the “major metabolite in kidneys” value [4] was “M3”.
For Polymyxin B [reference compound], the kidney findings [5] is given as “increased histological damage in all test animals”, the “Tukey HSD diff, Pre-treatment minus treated group (Log10 CFU/lung)” value ([3]; 90mg/kg/d) is given as -0.1967 and the “Tukey HSD diff, Vehicle minus treated group (Log10 CFU/lung)” value ([3]; 90mg/kg/d) is given as 0.1873. For the same molecule, the “Log10 CFU/lung” value ([3]; 90mg/kg/d) was 7.28 Log10 CFU/lung and 7.23 Log10 CFU/lung and 7.74 Log10 CFU/lung.

From PMC8956739, “A synthetic lipopeptide targeting top-priority multidrug-resistant Gram-negative pathogens” (Nature Communications, 2022)
